Reference: US20160025730A1, “METHODS OF SELECTING COMBINATION THERAPY FOR COLORECTAL CANCER PATIENTS” (NESTEC S.A., priority 2013, published 2016)

How the values were obtained:
ERK = assay: CEER phospho ERK level; assay type: cell-based, human; details: Lim1215 cells, 24 h, assay range 1.02-100
MEK = assay: CEER phospho MEK level; assay type: cell-based, human; details: Lim1215 cells, 24 h, assay range 1.02-100
From the text: (§1) These were complemented by ErbB heterodimerization assays using CEER.

RSK = assay: CEER phospho RSK level; assay type: cell-based, human; details: Lim1215 cells, 24 h, assay range 2.56-100
From the text: as §1

AKT = assay: CEER phospho AKT level; details: Lim1215 cells, 24 h, assay range 1.02-40
HER2:HER3 = assay: CEER ErbB heterodimerization assay, HER2:HER3 dimer; assay type: cell-based, human; details: Lim1215 cells, 24 h, assay range 50-1500
From the text: (§2) In certain aspects, the present invention provides an assay for detecting and/or quantitating homo- or heterodimerization of receptor tyrosine kinases including, but not limited to, HER1:HER2 dimers, HER1:HER3 dimers, HER2:HER3 dimers, HER2:HER2 dimers, HER2:HER4 dimers, p95HER2:HER3 dimers, p95HER2:HER2 dimers, and the like. A homodimer is formed by two identical molecules such as HER2:HER2 in a process called homodimerization, whereas a heterodimer is formed by two different macromolecules such as HER1:HER3 or HER2:HER3 in a process called heterodimerization. In this aspect, the assay comprises three antibodies: (1) a capture antibody specific for one member of the dimer pair; (2) a first detection antibody specific for a first member of the dimer pair, wherein the first detection antibody is specific for a different domain than the capture antibody; and a (3) a second detection antibody specific for a second member of the dimer pair.
(§3) A first detection antibody is then used to bind to a different portion (e.g., epitope) on HER2. […] The first detection antibody comprises one or a plurality of first activation state-independent antibodies specific for one member of the dimer, whereas a second detection antibody or a plurality of second detection antibodies is specific for the other member of the dimer. […] Thereafter, the plurality of detectable captured analytes are incubated with a second member of the signal amplification pair, e.g., tyramide or tyramide biotin to generate an amplified signal, which is then detected.
as §1

HER3:PI3K = assay: CEER HER3:PI3K complex assay; assay type: cell-based, human; details: Lim1215 cells; 24 h; series 4 (FIG. 4; DMSO 24.7); assay range 3.9-500
From the text: The assays described herein can be used to detect and quantitate the amount of PI3K complex and the amount of activation and/or phosphorylation of a PI3K complex. The PI3K complex comprises: (i) a dimerized receptor tyrosine kinase pair; and (ii) a PI3K p85 subunit and a PI3K p110 (e.g., α or β) subunit. In particular embodiments, the assay comprises three antibodies: (1) a capture antibody specific for either the PI3K p85 or the PI3K p110 subunit; (2) a first detection antibody specific for a first member of the dimerized receptor tyrosine kinase pair or a PI3K subunit, wherein the first detection antibody is specific for a different domain than the capture antibody and wherein the PI3K subunit may be activated; and (3) a second detection antibody specific for a second member of the dimer pair or a PI3K subunit.
as §1

HER2 [1] = assay: CEER total HER2 expression level; assay type: cell-based, human; details: Lim1215 cells, 24 h, assay range 390-25000
From the text: as §1

HER3 [2] = assay: CEER total HER3 expression level; assay type: cell-based, human; details: Lim1215 cells, 24 h, assay range 390-25000
From the text: as §1

HER2 [3] = biological target: T1, HER2 (Homo sapiens, UniProt P04626); assay: CEER phospho HER2 activation level; assay type: cell-based; details: Lim1215 cells, 24 h, assay range 20.48-2000
T1 construct: endogenous in cells; host or cells: Lim1215 human colon cancer cells
T1 sequence (P04626 23-1255): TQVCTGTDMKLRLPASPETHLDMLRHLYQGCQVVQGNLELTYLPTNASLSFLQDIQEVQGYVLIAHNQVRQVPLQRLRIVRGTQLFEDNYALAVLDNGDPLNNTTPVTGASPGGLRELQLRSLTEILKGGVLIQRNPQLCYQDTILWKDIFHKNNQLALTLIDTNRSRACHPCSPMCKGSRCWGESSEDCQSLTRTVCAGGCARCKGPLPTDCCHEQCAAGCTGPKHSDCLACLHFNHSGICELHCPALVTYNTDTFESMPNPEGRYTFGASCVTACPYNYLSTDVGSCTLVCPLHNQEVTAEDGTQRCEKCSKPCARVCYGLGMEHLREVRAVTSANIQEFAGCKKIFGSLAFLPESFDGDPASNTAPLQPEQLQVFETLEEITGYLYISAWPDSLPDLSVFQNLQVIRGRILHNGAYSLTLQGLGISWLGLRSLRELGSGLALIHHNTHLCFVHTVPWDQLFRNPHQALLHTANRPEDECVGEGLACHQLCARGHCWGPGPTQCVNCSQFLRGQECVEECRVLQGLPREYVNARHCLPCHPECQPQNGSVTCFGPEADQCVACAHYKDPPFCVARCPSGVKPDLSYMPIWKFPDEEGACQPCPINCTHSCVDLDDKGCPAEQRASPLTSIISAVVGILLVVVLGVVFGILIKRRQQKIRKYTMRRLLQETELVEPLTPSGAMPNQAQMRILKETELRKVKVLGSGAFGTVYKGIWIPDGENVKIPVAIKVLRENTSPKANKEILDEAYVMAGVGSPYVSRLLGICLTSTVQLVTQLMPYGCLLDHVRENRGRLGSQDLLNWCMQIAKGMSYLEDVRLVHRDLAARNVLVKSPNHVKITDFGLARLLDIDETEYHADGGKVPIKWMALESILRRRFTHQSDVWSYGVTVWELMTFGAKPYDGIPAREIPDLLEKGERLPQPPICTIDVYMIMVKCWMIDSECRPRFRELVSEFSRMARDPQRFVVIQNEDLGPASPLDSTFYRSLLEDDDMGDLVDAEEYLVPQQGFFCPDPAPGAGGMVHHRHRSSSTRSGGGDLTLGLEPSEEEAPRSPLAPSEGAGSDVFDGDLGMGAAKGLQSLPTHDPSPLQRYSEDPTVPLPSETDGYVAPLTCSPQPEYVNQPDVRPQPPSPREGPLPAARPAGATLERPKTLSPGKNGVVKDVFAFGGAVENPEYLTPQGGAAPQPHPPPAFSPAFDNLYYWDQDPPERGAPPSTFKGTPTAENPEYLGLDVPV
From the text: as §1

HER3 [4] = assay: CEER phospho HER3 activation level; assay type: cell-based, human; details: Lim1215 cells, 24 h, assay range 12.8-1500
From the text: as §1

HER1:HER2 = assay: CEER ErbB heterodimerization assay, HER1:HER2 dimer; assay type: cell-based, human; details: Lim1215 cells, 24 h, assay range 7.8-1000
From the text: as §2, §3, §1

HER1:HER3 = assay: CEER ErbB heterodimerization assay, HER1:HER3 dimer; assay type: cell-based, human; details: Lim1215 cells, 24 h, assay range 200-20000
From the text: as §2, §3, §1

HER1 [5] = assay: CEER total HER1 expression level; assay type: cell-based, human; details: Lim1215 cells, 24 h, assay range 7.8-500
From the text: as §1

HER1 [6] = biological target: T2, HER1 (Homo sapiens, UniProt P00533); assay: CEER phospho HER1 activation level; assay type: cell-based; details: Lim1215 cells; 24 h; series 4 (FIG. 4; DMSO 4.7); assay range 0.14-10.67
T2 construct: endogenous in cells; host or cells: Lim1215 human colon cancer cells
T2 sequence (P00533 25-1210): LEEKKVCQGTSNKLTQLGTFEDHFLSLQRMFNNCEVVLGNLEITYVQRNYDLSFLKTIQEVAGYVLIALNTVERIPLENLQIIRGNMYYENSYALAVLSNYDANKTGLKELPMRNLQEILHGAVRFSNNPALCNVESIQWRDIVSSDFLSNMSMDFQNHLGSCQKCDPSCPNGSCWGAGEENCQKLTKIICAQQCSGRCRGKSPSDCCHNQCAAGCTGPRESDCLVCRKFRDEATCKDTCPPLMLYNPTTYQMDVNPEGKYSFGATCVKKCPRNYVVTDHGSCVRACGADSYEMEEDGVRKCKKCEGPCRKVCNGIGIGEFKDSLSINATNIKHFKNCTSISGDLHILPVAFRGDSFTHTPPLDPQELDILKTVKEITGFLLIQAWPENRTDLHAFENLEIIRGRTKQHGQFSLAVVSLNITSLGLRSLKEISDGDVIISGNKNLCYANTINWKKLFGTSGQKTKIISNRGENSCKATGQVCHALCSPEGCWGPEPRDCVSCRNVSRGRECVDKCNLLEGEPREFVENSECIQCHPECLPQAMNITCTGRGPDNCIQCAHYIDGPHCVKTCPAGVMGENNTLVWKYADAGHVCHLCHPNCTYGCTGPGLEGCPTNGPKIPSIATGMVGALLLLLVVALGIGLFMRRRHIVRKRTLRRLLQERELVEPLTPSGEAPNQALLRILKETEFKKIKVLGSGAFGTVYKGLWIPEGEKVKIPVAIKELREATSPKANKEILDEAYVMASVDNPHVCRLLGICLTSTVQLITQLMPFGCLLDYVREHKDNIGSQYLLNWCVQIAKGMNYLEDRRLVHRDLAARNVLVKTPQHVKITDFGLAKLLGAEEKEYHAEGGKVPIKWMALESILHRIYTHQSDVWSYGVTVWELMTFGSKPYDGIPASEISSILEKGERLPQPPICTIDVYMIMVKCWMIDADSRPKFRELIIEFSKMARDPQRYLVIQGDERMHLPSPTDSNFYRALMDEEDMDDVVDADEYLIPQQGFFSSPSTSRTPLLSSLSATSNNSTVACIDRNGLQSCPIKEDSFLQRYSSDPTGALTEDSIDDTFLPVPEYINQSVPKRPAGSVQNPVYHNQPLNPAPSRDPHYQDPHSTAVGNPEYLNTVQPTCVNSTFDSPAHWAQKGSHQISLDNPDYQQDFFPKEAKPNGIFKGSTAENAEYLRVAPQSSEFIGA
From the text: as §1

[7] = series 3 (FIG. 3; control 16.3)
[8] = series 3 (FIG. 3; control […] >ULOQ)
[9] = series 3 (FIG. 3; control 11.4)
[10] = series 3 (FIG. 3; control 211.8)
[11] = series 3 (FIG. 3; control 3025)
[12] = series 3 (FIG. 3; control 4282)

**Q.** How did the “Phos ERK (10 ug)” value (ERK; series 3 (FIG. 3; control 5.3)) turn out when `COc1cc2ncnc(Nc3ccc(F)c(Cl)c3)c2cc1OCCCN1CCOCC1` [Gefitinib, gefitinib] was run?
**A.** 1.1 pg/µg

**Q.** What about the “Phos ERK (10 ug)” value (ERK; series 4 (FIG. 4; DMSO 3.3)) of the same molecule?
**A.** 0.68 pg/µg

**Q.** And the “Phos MEK (10 ug)” value (MEK; [7])?
**A.** 2.9 pg/µg

**Q.** And the “Phos MEK (10 ug)” value (MEK; series 4 (FIG. 4; DMSO 9.8))?
**A.** 1.7 pg/µg

**Q.** And the “Phos RSK (10 ug)” value (RSK; [8])?
**A.** 6.3 pg/µg

**Q.** And the “Phos RSK (10 ug)” value (RSK; series 4 (FIG. 4; DMSO 91.4))?
**A.** 4.7 pg/µg

**Q.** What about the “Phos AKT (10 ug)” value (AKT; [9]) of the same molecule?
**A.** 0.64 pg/µg

**Q.** What does the source list for `CS(=O)(=O)CCNCc1ccc(-c2ccc3ncnc(Nc4ccc(OCc5cccc(F)c5)c(Cl)c4)c3c2)o1` [Lapatinib, lapatinib]?
**A.** ErbB Dimer Formation HER2:HER3 (2 ug) (HER2:HER3; [10]): 493.6; ErbB Dimer Formation HER2:HER3 (2 ug) (HER2:HER3; series 4 (FIG. 4; DMSO 172.5)): 301.3; HER3:PI3K (4 ug) (HER3:PI3K): 23.0; Total HER2 (0.2 ug) (HER2 [1]; [11]): 5391; Total HER2 (0.2 ug) (HER2 [1]; series 4 (FIG. 4; DMSO 2581)): 4135; Total HER3 (0.2 ug) (HER3 [2]; [12]): 5711; Total HER3 (0.2 ug) (HER3 [2]; series 4 (FIG. 4; DMSO 3388)): 6907; Phos HER2 (2.5 ug) (HER2 [3]; series 3 (FIG. 3; control 2068 >ULOQ)): 49; Phos HER2 (2.5 ug) (HER2 [3]; series 4 (FIG. 4; DMSO 447)): 15; Phos HER3 (10 ug) (HER3 [4]; series 3 (FIG. 3; control 573)): 677; Phos ERK (10 ug) (ERK; series 3 (FIG. 3; control 5.3)): 0.84 pg/µg; Phos ERK (10 ug) (ERK; series 4 (FIG. 4; DMSO 3.3)): 0.56 pg/µg; Phos MEK (10 ug) (MEK; [7]): 3.1 pg/µg; Phos MEK (10 ug) (MEK; series 4 (FIG. 4; DMSO 9.8)): 1.4 pg/µg; Phos RSK (10 ug) (RSK; [8]): 3.9 pg/µg; Phos RSK (10 ug) (RSK; series 4 (FIG. 4; DMSO 91.4)): 3.3 pg/µg; Phos AKT (10 ug) (AKT; [9]): 0.66 pg/µg

**Q.** With `O=C(NC[C@H](O)CO)c1ccncc1Nc1ccc(I)cc1F` [iMEK AS703026, AS703026] as the molecule, how does the “ErbB Dimer Formation HER2:HER3 (2 ug)” value (HER2:HER3; series 4 (FIG. 4; DMSO 172.5)) read?
**A.** 313.2

**Q.** What about the “ErbB Dimer Formation HER1:HER2 (2 ug)” value (HER1:HER2; series 4 (FIG. 4; DMSO 42.7)) of the same molecule?
**A.** 52.1

**Q.** And the “ErbB Dimer Formation HER1:HER3 (0.5 ug)” value (HER1:HER3; series 4 (FIG. 4; DMSO 186))?
**A.** 226

**Q.** And the “HER3:PI3K (4 ug)” value (HER3:PI3K)?
**A.** 27.8

**Q.** And the “Total HER1 (1 ug)” value (HER1 [5]; series 4 (FIG. 4; DMSO 96.8))?
**A.** 69.9

**Q.** And the “Total HER2 (0.2 ug)” value (HER2 [1]; series 4 (FIG. 4; DMSO 2581))?
**A.** 2546

**Q.** And the “Total HER3 (0.2 ug)” value (HER3 [2]; series 4 (FIG. 4; DMSO 3388))?
**A.** 3317

**Q.** What about the “Phos HER1 (10 ug)” value (HER1 [6]) of the same molecule?
**A.** 2.9

**Q.** And the “Phos HER2 (2.5 ug)” value (HER2 [3]; series 4 (FIG. 4; DMSO 447))?
**A.** 480

**Q.** What about the “Phos HER3 (10 ug)” value (HER3 [4]; series 4 (FIG. 4; DMSO 204)) of the same molecule?
**A.** 300

**Q.** What about the “Phos ERK (10 ug)” value (ERK; series 4 (FIG. 4; DMSO 3.3)) of the same molecule?
**A.** 1.1 pg/µg

**Q.** And the “Phos MEK (10 ug)” value (MEK; series 4 (FIG. 4; DMSO 9.8))?
**A.** 74.9 pg/µg

**Q.** And the “Phos RSK (10 ug)” value (RSK; series 4 (FIG. 4; DMSO 91.4))?
**A.** 35.9 pg/µg

**Q.** pertuzumab was tested. Which “ErbB Dimer Formation HER2:HER3 (2 ug)” value (HER2:HER3; series 2 (FIG. 2; Control 250.9)) did it give?
**A.** 704.6

**Q.** And the “ErbB Dimer Formation HER2:HER3 (2 ug)” value (HER2:HER3; [10])?
**A.** 472.1

**Q.** And the “ErbB Dimer Formation HER1:HER2 (2 ug)” value (HER1:HER2; series 2 (FIG. 2; Control […]))?
**A.** 161.7

**Q.** What about the “ErbB Dimer Formation HER1:HER2 (2 ug)” value (HER1:HER2; series 3 (FIG. 3; control 46.0)) of the same molecule?
**A.** 64.8

**Q.** And the “ErbB Dimer Formation HER1:HER3 (0.5 ug)” value (HER1:HER3; series 2 (FIG. 2; Control 387))?
**A.** 458

**Q.** And the “ErbB Dimer Formation HER1:HER3 (0.5 ug)” value (HER1:HER3; series 3 (FIG. 3; control 398))?
**A.** 412

**Q.** What about the “Total HER1 (1 ug)” value (HER1 [5]; series 2 (FIG. 2; Control 171.4)) of the same molecule?
**A.** 198.5

**Q.** What about the “Total HER1 (1 ug)” value (HER1 [5]; series 3 (FIG. 3; control 137.2)) of the same molecule?
**A.** 115.1

**Q.** And the “Total HER2 (0.2 ug)” value (HER2 [1]; series 2 (FIG. 2; Control 4212))?
**A.** 7200

**Q.** And the “Total HER2 (0.2 ug)” value (HER2 [1]; [11])?
**A.** 5568

**Q.** What about the “Total HER3 (0.2 ug)” value (HER3 [2]; series 2 (FIG. 2; Control 7757)) of the same molecule?
**A.** 10665

**Q.** What about the “Total HER3 (0.2 ug)” value (HER3 [2]; [12]) of the same molecule?
**A.** 5501

**Q.** And the “Phos HER3 (10 ug)” value (HER3 [4]; series 2 (FIG. 2; Control 236))?
**A.** 313

**Q.** What about the “Phos HER3 (10 ug)” value (HER3 [4]; series 3 (FIG. 3; control 573)) of the same molecule?
**A.** 826

**Q.** What about the “Phos ERK (10 ug)” value (ERK; series 2 (FIG. 2; Control 5.7)) of the same molecule?
**A.** 5.6 pg/µg

**Q.** And the “Phos ERK (10 ug)” value (ERK; series 3 (FIG. 3; control 5.3))?
**A.** 2.2 pg/µg

**Q.** What about the “Phos MEK (10 ug)” value (MEK; series 2 (FIG. 2; Control 38.0)) of the same molecule?
**A.** 17.1 pg/µg

**Q.** What about the “Phos MEK (10 ug)” value (MEK; [7]) of the same molecule?
**A.** 8.6 pg/µg

**Q.** What about the “Phos RSK (10 ug)” value (RSK; series 2 (FIG. 2; Control 289 >ULOQ)) of the same molecule?
**A.** 199 pg/µg

**Q.** What about the “Phos RSK (10 ug)” value (RSK; [8]) of the same molecule?
**A.** 92.1 pg/µg

**Q.** What about the “Phos AKT (10 ug)” value (AKT; series 2 (FIG. 2; Control 9.6)) of the same molecule?
**A.** 6.1 pg/µg

**Q.** What about the “Phos AKT (10 ug)” value (AKT; [9]) of the same molecule?
**A.** 1.2 pg/µg
